Source: US20170360664A1, “PERSONAL CARE COMPOSITIONS” (Colgate-Palmolive Company, priority 2015, published 2017)

Experiment: Clarity, pH and aging stability of aqueous SnF2/STPP solutions
Assay type: physicochemical
Conditions: 2% stannous fluoride solution without STPP
Experimental: The solutions are then further mixed at room temperature until a clear solution forms. All of the solutions contain 2% SnF2.
The solutions with a P:Sn molar ratio spanning from 1 to 15 containing 2% SnF2 are aged overnight at room temperature.
A different set of solutions with a P:Sn molar ratio of 2 and 5 are placed in a 50° C. oven for eight weeks.

[F][Sn][F] [stannous fluoride]
Appearance after dissolution: precipitate almost immediately after dissolution
